Test systems include SF-539 CNS; OVCAR-5 ovarian; MALME-3M melanoma; 786-0 renal; COLO 205 colon; EKVX NSCLC; HCT-15 colon; KM12 colon; HCT-116 colon; NCI-H522 lung.
Common to all, as to assay: NCI-60 cell line screen, 48 h

Here are results for four compounds from PubChem BioAssay (NCI).

Molecules are shown by their SMILES.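 Step 1: Grow cells in 96-well plates. Step 2: Expose to compound for 48 hours at 5 concentrations. Step 3: Interpolate endpoints linearly; if unreached, use highest concentration. GI50 = concentration required for 50% inhibition of growth. TGI: total growth inhibition.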

Take `COc1ccc(OC(=O)O[C@H]2[C@H](O[C@H]3[C@@H](O)COC(O[C@H]4C[C@H]5[C@@H]6CC=C7C[C@@H](O)CC[C@]7(C)[C@H]6CC[C@]5(C)[C@H]4[C@H](C)C(=O)CCC(C)C)[C@@H]3OC(C)=O)OC[C@@H](O)[C@@H]2O)cc1` (stereo partly specified): the GI50 is less than 0.01 µM in the assay with SF-539 CNS; 0.89 µM in the assay on OVCAR-5 ovarian; 0.122 µM in the assay with MALME-3M melanoma; less than 0.01 µM in the assay with 786-0 renal; 0.164 µM with COLO 205 colon; 1.64 µM in the assay on EKVX NSCLC. Also, the GI50 in the assay on HCT-15 colon is 1.29 µM; with KM12 colon, 0.682 µM; with HCT-116 colon it was 0.0621 µM; in the assay with NCI-H522 lung, 0.165 µM. Moreover, the TGI was found to be 0.0764 µM in the assay with SF-539 CNS; 15.9 µM with OVCAR-5 ovarian; 3.84 µM in the assay on MALME-3M melanoma; 3.81 µM with 786-0 renal; 1.16 µM in the assay with COLO 205 colon; 19.6 µM with EKVX NSCLC. For the same compound, the TGI was 11.4 µM with HCT-15 colon, 19.7 µM in the assay on KM12 colon, 14.1 µM in the assay with HCT-116 colon and 2.1 µM with NCI-H522 lung.

Consider `CC[C@H](C)[C@H](NC(=O)[C@H]1CCCCN1C)C(=O)N(C)[C@H](CCc1nc(C(=O)N[C@@H](Cc2ccccc2)C[C@H](C)C(=O)OC)cs1)C(C)C`, for which the GI50 with SF-539 CNS was 0.464 µM; with OVCAR-5 ovarian, 1.12 µM; in the assay with MALME-3M melanoma, 3.71 µM; in the assay with 786-0 renal it was 0.432 µM; in the assay with COLO 205 colon it was 0.167 µM; in the assay with EKVX NSCLC, 1.11 µM. Also, the GI50 was 0.712 µM with HCT-15 colon, 0.261 µM in the assay on KM12 colon, 0.118 µM with HCT-116 colon and 0.0446 µM in the assay with NCI-H522 lung. In addition, the TGI with SF-539 CNS was 1.53 µM; in the assay with OVCAR-5 ovarian, greater than 25 µM; in the assay with MALME-3M melanoma, greater than 25 µM; in the assay with 786-0 renal it was greater than 11.6 µM; with COLO 205 colon, 0.916 µM; in the assay with EKVX NSCLC, greater than 25 µM. Besides, the TGI was greater than 25 µM in the assay with HCT-15 colon, greater than 25 µM in the assay on KM12 colon, greater than 5.35 µM in the assay with HCT-116 colon and 0.143 µM in the assay on NCI-H522 lung.

In the case of `COc1cc(C2c3cc4c(cc3[C@H](OCCN(C)C)[C@@H]3COC(=O)C23)OCO4)cc(OC)c1O` (stereo partly specified), the TGI came to 0.449 µM with SF-539 CNS; 3.82 µM in the assay on OVCAR-5 ovarian; 1.73 µM in the assay on MALME-3M melanoma; 0.439 µM in the assay with 786-0 renal; 9.05 µM in the assay with COLO 205 colon; 1.5 µM with EKVX NSCLC. Moreover, the TGI in the assay on HCT-15 colon is greater than 100 µM; in the assay on KM12 colon, 8.95 µM; with HCT-116 colon, 7.18 µM; with NCI-H522 lung, 2.35 µM. Further, the GI50 in the assay with HCT-15 colon is 0.344 µM.

As for `CCOC(=O)[C@H]1Nc2ccc(C)cc2C2c3ccccc3CC21` (stereo partly specified), the TGI in the assay on SF-539 CNS, in the assay on OVCAR-5 ovarian, with MALME-3M melanoma, with 786-0 renal, in the assay with COLO 205 colon and with EKVX NSCLC was greater than 100 µM in each case. Besides, the TGI in the assay on HCT-15 colon, in the assay with KM12 colon, in the assay with HCT-116 colon and in the assay on NCI-H522 lung was greater than 100 µM each time.
